US5565566A (Discovery Therapeutics, Inc., priority 1995, dated 1996)
pKi: −log10 of the molar value. Structures can show the parent of a compound that is named as a salt. Where two headings read alike, the source gives them in different places.

Key:
[1] = biological target: T1, rat cortical A1 receptors (Rattus norvegicus, UniProt P25099); test: displacement of [3H]-CHA from rat cortical A1 receptors; assay type: binding
T1 construct: rat cortical membranes were the receptor source; from tissue; host or cells: rat cerebral cortex (male Sprague Dawley) membranes
T1 sequence (P25099 1-326): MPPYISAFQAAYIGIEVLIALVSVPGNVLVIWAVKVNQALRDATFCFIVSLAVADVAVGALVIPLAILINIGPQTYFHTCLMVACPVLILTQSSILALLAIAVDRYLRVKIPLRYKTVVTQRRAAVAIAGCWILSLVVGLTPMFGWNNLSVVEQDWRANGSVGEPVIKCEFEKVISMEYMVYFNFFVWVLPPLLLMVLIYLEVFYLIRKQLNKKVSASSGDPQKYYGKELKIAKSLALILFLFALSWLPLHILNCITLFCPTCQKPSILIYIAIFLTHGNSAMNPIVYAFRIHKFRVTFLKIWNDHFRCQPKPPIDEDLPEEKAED
Description: Varying concentrations of test compounds were incubated with the appropriate radioligand and membrane source for 1 hr at room temperature.
Assays were terminated by filtration over Whatman GF/B filters that had been pre-soaked with 0.1% polyethyleneimine using a 24 port Brandell cell havester. The filters were washed three times with 3 ml of ice cold buffer and transfered to plastic scintillation vials to which 4 ml of Beckman Ready protein scintillation cocktail was added. The tubes were shaken and counted in a Beckman 3801 scintillation counter that converted cpm to dpm.
Data were analyzed by utilizing the Ligand, commercial computer program (Munson and Rodbard, 1980).
Male Sprague Dawley rats were killed by decapitation and the brains removed. The cerebral cortices were homogenized in 50 mm Tris; 2mm MgCl2 (pH 7.4), and centrifuged at 40,000×g for 10 minutes. […] The homogenate was centrifuged, washed once, resuspended to a protein concentration of 5-10 mg/ml and frozen at -70° C. until use.

A2 receptors [2] = biological target: T2, A2 receptors (Homo sapiens, UniProt P29274); test: antagonism of NECA-stimulated adenylate cyclase in human platelet membranes (A); assay type: biochemical
T2 construct: Human Platelet Membranes; from tissue; host or cells: human platelets (membranes)

A2 receptors [3] = biological target: T3, A2 receptors (Rattus norvegicus, UniProt P30543); test: antagonism of NECA-stimulated adenylate cyclase in rat PC12 membranes (B); assay type: biochemical; settings: (B) Rat PC12 Membranes, A2 Effects
T3 construct: Rat PC12 Membranes; endogenous in cells; host or cells: PC12

A1 receptors [4] = biological target: T4, A1 receptors (Rattus norvegicus, UniProt P25099); test: inhibition of binding of [3H]-phenylisopropyladenosine in rat brain membranes (D); design: Rat Brain Membranes; from tissue; host or cells: rat brain (membranes)
T4 sequence (P25099 1-326): T1 sequence (P25099 1-326)
Description: (§1) For activity at A1 receptors, compounds were tested as inhibitors of the binding of N^6 -[…]-[3H]-Phenylisopropyladenosine in rat brain membranes and for their ability to prevent R-PIA-induced inhibition of adenylate cyclase in rat fat cell membranes.
(D) Rat Brain Membranes

A1 receptors [5] = biological target: T4, A1 receptors; test: prevention of R-PIA-induced inhibition of adenylate cyclase in rat fat cell membranes (C); assay type: biochemical; design: from tissue
Description: as §1
(C) Rat Fat Cell Membranes

[6] = [3H]-CHA, rat cortical A1 receptors, read-out: Rat Cortical Binding Constant Ki
[7] = (A) Human Platelet Membranes, A2 Effects
[8] = (D) Rat Brain Membranes, A1 Effects, read-out: Ki vs [^3 H] PI (Binding)
[9] = (C) Rat Fat Cell Membranes, A1 Effects, read-out: KB vs PIA INHIBITION (Adenylate Cyclase)

T3 sequence (P30543 whole entry): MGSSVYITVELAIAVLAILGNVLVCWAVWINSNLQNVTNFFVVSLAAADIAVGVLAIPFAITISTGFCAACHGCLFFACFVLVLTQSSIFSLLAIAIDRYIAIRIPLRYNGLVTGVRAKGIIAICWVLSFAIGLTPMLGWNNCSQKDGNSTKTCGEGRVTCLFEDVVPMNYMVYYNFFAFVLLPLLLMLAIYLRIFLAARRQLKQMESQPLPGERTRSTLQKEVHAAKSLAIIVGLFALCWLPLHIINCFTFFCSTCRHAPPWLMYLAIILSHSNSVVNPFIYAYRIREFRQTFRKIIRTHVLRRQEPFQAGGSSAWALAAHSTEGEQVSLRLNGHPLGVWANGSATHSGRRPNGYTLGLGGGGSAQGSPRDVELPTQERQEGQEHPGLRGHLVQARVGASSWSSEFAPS
T2 sequence (P29274 whole entry): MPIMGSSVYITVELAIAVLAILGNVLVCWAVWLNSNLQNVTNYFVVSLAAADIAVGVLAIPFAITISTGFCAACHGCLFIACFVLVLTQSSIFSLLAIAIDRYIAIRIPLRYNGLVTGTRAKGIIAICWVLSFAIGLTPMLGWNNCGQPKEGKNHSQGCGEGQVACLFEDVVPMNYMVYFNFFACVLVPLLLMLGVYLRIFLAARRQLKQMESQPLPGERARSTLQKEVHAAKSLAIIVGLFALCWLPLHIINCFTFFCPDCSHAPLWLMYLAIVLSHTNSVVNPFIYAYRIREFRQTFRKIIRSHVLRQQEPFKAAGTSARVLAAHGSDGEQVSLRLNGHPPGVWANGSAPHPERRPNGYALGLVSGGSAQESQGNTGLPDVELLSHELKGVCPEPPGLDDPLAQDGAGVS

## OCCOCn1cnc2c(N[C@H]3C[C@H]4CC[C@@H]3C4)ncnc21 (relative stereo) [compound 1059, N^6-(endo-2-norbornyl)-9-[(2-hydroxyethoxy)methyl]adenine]
[1]; [6]
  pKi: 6.31

## Cn1cnc2c(N[C@H]3C[C@H]4CC[C@@H]3C4)nc(Cl)nc21 (relative stereo) [compound 0913, N^6-(endo-2-norbornyl)-2-chloro-9-MA]
[1]; [6]
  pKi: 6.98

## C[C@H](Cc1ccccc1)Nc1ncnc2c1ncn2C [N^6 R-1-Phenyl-2-propyl-9-MA, N^6 -R-1-Phenyl-2-propyl-9-MA]
A2 receptors [2]; [7]
  Kb: 13 µM
A2 receptors [3]
  Kb: 25 µM
A1 receptors [4]
  pKi: 5.60
A1 receptors [5]
  Kb: 7.2 µM

## Cc1cc(Cl)ccc1Nc1ncnc2c1ncn2C [compound 0988, N6(4-chloro-2-methylphenyl)-9-MA]
[1]; [6]
  pKi: < 5.00

## Cn1cnc2c(NCCc3ccccc3)ncnc21 [compound 0990, N^6-2-(phenethyl)9-MA]
A2 receptors [2]; [7]
  Kb: 170 µM
A2 receptors [3]
  Kb: 120 µM
A1 receptors [4]; [8]
  pKi: < 4.00
A1 receptors [5]; [9]
  Kb: > 300 µM
[1]; [6]
  pKi: < 5.00

## Cn1c(=O)[nH]c2c(N[C@H]3C[C@H]4CC[C@@H]3C4)ncnc21 (relative stereo) [compound 1001, N^6-(endo-2-norbornyl)-8-oxo-9-MA]
[1]; [6]
  pKi: ~5.00

## Cn1cnc2c(N[C@@H]3C[C@H]4CC[C@@H]3C4)ncnc21 (relative stereo) [compound 0978, N^6-(exo-2-norbornyl)-9-MA]
[1]; [6]
  pKi: 6.37

## Cn1cnc2c(NCCc3cccnc3)ncnc21 [N^6-2-(3-Pyridylethyl)-9-MA]
A2 receptors [2]; [7]
  Kb: 92 µM
A2 receptors [3]
  Kb: 117 µM
A1 receptors [4]; [8]
  pKi: 4.39
A1 receptors [5]; [9]
  Kb: 96 µM

## Cn1cnc2c(NCCc3ccsc3)ncnc21 [N^6-2-(3-Thienylethyl)-9-MA]
A2 receptors [2]; [7]
  Kb: 14 µM
A2 receptors [3]
  Kb: 25 µM
A1 receptors [4]; [8]
  pKi: 4.70
A1 receptors [5]; [9]
  Kb: 24 µM

## Cn1c(C2CCCC2)nc2c(NC3CCCC3)ncnc21 [compound 0965, N^6-cyclopentyl-8-cyclopentyl-9-MA]
[1]; [6]
  pKi: 6.85

## Cn1c(S)nc2c(N[C@H]3C[C@H]4CC[C@@H]3C4)ncnc21 (relative stereo) [compound 1060, N^6-(endo-2-norbornyl)-8-thio-9-MA]
[1]; [6]
  pKi: 6.43

## N^6 -Methylcyclopentyl-9-MA [N^6 -Methylcylopentyl-9-MA]
A2 receptors [2]; read-out: KB vs NECA Stimulation (Adenylate Cyclase), (A) Human Platelet Membranes, A2 Effects
  Kb: 45 µM
A2 receptors [3]; read-out: KB vs NECA Stimulation (Adenylate Cyclase)
  Kb: 56 µM
A1 receptors [4]; [8]
  pKi: 5.60
A1 receptors [5]; [9]
  Kb: 9 µM

## Cn1cnc2c(NCC(c3ccccc3)c3ccccc3)ncnc21 [compound 0966, N^6-2,2-diphenylethyl-9-MA]
[1]; [6]
  pKi: < 5.00

## Cn1cnc2c(NCCc3ccccc3Cl)ncnc21 [compound 0967, N^6-2(2-chlorophenylethyl)9-MA]
[1]; [6]
  pKi: < 5.00

## C[C@@H](Cc1ccccc1)Nc1ncnc2c1ncn2C [compound 0986, N^6 -S-1-phenyl-2-propyl-9-MA]
A2 receptors [2]
  Kb: 23 µM
A2 receptors [3]
  Kb: 74 µM
A1 receptors [4]
  pKi: 5.00
[1]
  pKi: < 5.00

## Cn1c(Br)nc2c(N[C@H]3C[C@H]4CC[C@@H]3C4)ncnc21 (relative stereo) [compound 1003, N^6-(endo-2-norbornyl)-8-bromo-9-MA]
[1]; [6]
  pKi: 7.89

## Cn1cnc2c(Nc3ccccc3F)ncnc21 [N^6-2-Fluorophenyl-9-MA, N^6-2-Fluorophenyl-9-MA]
A2 receptors [2]; [7]
  Kb: 11 µM
A2 receptors [3]
  Kb: 29 µM
A1 receptors [4]; [8]
  pKi: 5.07
A1 receptors [5]; [9]
  Kb: 17 µM

## Cn1c(C(=O)O)nc2c(N[C@H]3C[C@H]4CC[C@@H]3C4)ncnc21 (relative stereo) [compound 1006, N^6-(endo-2-norbornyl)-8-carboxy-9-MA Sodium Salt]
[1]; [6]
  pKi: < 5.00

## Cn1cnc2c(NCCN)ncnc21 [compound 0982, N^6-2-Aminoethyl-9-MA]
[1]; [6]
  pKi: < 5.00
